“And” between values parts separate entries of the source, which are not always exact repeats. Equal entries are not always repeated. Structures can show the parent of a compound that is named as a salt. Where two headings read alike, the source gives them in different places.
Assay: Food and acidic beverage effect on bioavailability of ATR-101 tablets, 3-way crossover plasma PK study
Type: in vivo, human
Details: for kel: in h-1; for AUC0-t Ratio C/A: fasting with acidic beverage vs fasting with water; for AUC0-t Ratio B/C: fed with water vs fasting with acidic beverage; for AUC0-t Ratio B/A: fed with water vs fasting with water
Method: To evaluate the effects of food and of an acidic beverage on bioavailability of ATR-101 tablets prepared according to Example 2 (see Table 2), an open-label, randomized, 3-period, 3-way crossover, 3-sequence study was carried out with fourteen healthy, adult, non-tobacco using male and female (non-childbearing potential only) human subjects.
Three different treatments A, B, and C were administered as follows:
Treatment A: 500 mg ATR-101 (1×500 mg tablet) administered with water at Hour 0 on Day 1 following an overnight fast.
Treatment B: 500 mg ATR-101 (1×500 mg tablet) administered with water at Hour 0, 30 minutes after the start of a high-fat breakfast, on Day 1.
Treatment C: 500 mg ATR-101 (1×500 mg tablet) administered with Coca-Cola® Classic at Hour 0 on Day 1 following an overnight fast.
On Day 1 of Period 1, subjects were randomized to one of 3 treatment sequences: ABC, BCA, or CBA. For Treatments A and B, ATR-101 was administered orally with approximately 240 mL of water. For Treatment C, ATR-101 was administered orally with approximately 240 mL of Coca-Cola® Classic. Water (except water provided with dosing for Treatments A and B) was restricted 1 hour prior to and 1 hour after each study drug administration, but was allowed ad libitum at all other times. Other fluids were given as part of the standard meals (including the breakfast administered prior to study drug dosing for Treatment B) and/or snacks, but were restricted at all other times (except for the Coca-Cola® Classic beverage provided with dosing in Treatment C) throughout the confinement period.
For Treatments A and C, subjects fasted overnight for at least 10 hours prior to study drug administration and continued the fast for at least 4 hours post-dose.
For Treatment B, subjects were required to fast overnight for at least 10 hours until 30 minutes prior to study drug administration, when they were given breakfast which was entirely consumed within 30 minutes. A representative breakfast includes 2 slices of buttered toast, 2 fried eggs, 2 strips of bacon, 4 oz of hash brown potatoes, and 240 mL of whole milk.
On Day 1 of each period, a standard lunch and dinner was provided at approximately 4 and 9 hours post-dose, respectively, and a snack was also offered at approximately 12 hours post-dose. On other days when confined in the CRU, standard meals and/or snacks were provided at appropriate times. When confined, subjects were required to fast from all food and drink except water between meals and snacks served at the clinical research unit.
Each meal and/or snack served at the clinical research unit was standardized and was similar in caloric content and composition (except for the meal served as part of Treatment B) and was taken at approximately the same time in each period.
For all subjects, blood samples for the determination of ATR-101 plasma concentration were collected at pre-dose and 0.5, 1, 1.5, 2, 2.5, 3, 3.5, 4, 5, 6, 8, 12, 16, 24, 36, and 48 hours post-dose. PK parameters for plasma ATR-101 were calculated as follows: • AUC0-t: The area under the plasma concentration-time curve, from time 0 to the last measurable non-zero concentration, was calculated by the linear trapezoidal method. • AUC0-inf: The area under the plasma concentration-time curve from time 0 extrapolated to infinity. AUC0-inf was calculated as the sum of AUC0-t plus the ratio of the last measurable plasma concentration to the elimination rate constant. • AUC%extrap: Percent of AUC0-inf extrapolated, represented as
[formula] • Cmax: Maximum observed concentration. • tmax: Time to reach Cmax. If the maximum value occurred at more than one time point, tmax was defined as the first time point with this value. • ke1: Apparent first-order terminal elimination rate constant calculated from a semi-log plot of the plasma concentration versus time curve. […]

[1] = Treatment C (fasting with acidic beverage), single oral 500 mg, Minimum
[2] = Treatment C (fasting with acidic beverage, Coca-Cola Classic), single oral 500 mg, individual subject, hydrochloride
[3] = individual subject, hydrochloride

tmax [1]: 1.50 h | kel [1]: 0.0249 | AUC0-inf (both sexes, human, plasma, po, 500 mg, Treatment A (fasting with water), single oral 500 mg, Geometric Mean, read-out: AUC0-inf): 3480 ng·h/mL | AUC0-t (both sexes, human, plasma, po, 500 mg, Treatment A (fasting with water), single oral 500 mg, Geometric Mean, read-out: AUC0-t): 2710 ng·h/mL | Cmax (both sexes, human, plasma, po, 500 mg, Treatment A (fasting with water), single oral 500 mg, Geometric Mean, read-out: Cmax): 469 ng/mL | half-life (both sexes, human, plasma, po, 500 mg, Treatment A (fasting with water), single oral 500 mg, Mean): 17.9 h | AUC0-inf (both sexes, human, plasma, po, 500 mg, Treatment A (fasting with water), single oral 500 mg, Mean, read-out: AUC0-inf): 3620 ng·h/mL | AUC0-t (both sexes, human, plasma, po, 500 mg, Treatment A (fasting with water), single oral 500 mg, Mean, read-out: AUC0-t): 2970 ng·h/mL | Cmax (both sexes, human, plasma, po, 500 mg, Treatment A (fasting with water), single oral 500 mg, Mean, read-out: Cmax): 575 ng/mL | half-life (both sexes, human, plasma, po, 500 mg, Treatment A (fasting with water), single oral 500 mg, Median): 18.2 h | AUC0-inf (both sexes, human, plasma, po, 500 mg, Treatment A (fasting with water), single oral 500 mg, Median, read-out: AUC0-inf): 3400 ng·h/mL | AUC0-t (both sexes, human, plasma, po, 500 mg, Treatment A (fasting with water), single oral 500 mg, Median, read-out: AUC0-t): 2620 ng·h/mL | Cmax (both sexes, human, plasma, po, 500 mg, Treatment A (fasting with water), single oral 500 mg, Median, read-out: Cmax): 542 ng/mL | tmax (both sexes, human, plasma, po, 500 mg, Treatment A (fasting with water), single oral 500 mg, Median, read-out: tmax): 2 h | AUC0-inf (both sexes, human, plasma, po, 500 mg, Treatment B (fed with water), single oral 500 mg, Geometric Mean, read-out: AUC0-inf): 6740 ng·h/mL | AUC0-t (both sexes, human, plasma, po, 500 mg, Treatment B (fed with water), single oral 500 mg, Geometric Mean, read-out: AUC0-t): 6200 ng·h/mL | Cmax (both sexes, human, plasma, po, 500 mg, Treatment B (fed with water), single oral 500 mg, Geometric Mean, read-out: Cmax): 1180 ng/mL | half-life (both sexes, human, plasma, po, 500 mg, Treatment B (fed with water), single oral 500 mg, Mean): 20.4 h | AUC0-inf (both sexes, human, plasma, po, 500 mg, Treatment B (fed with water), single oral 500 mg, Mean, read-out: AUC0-inf): 7130 ng·h/mL | AUC0-t (both sexes, human, plasma, po, 500 mg, Treatment B (fed with water), single oral 500 mg, Mean, read-out: AUC0-t): 6560 ng·h/mL | Cmax (both sexes, human, plasma, po, 500 mg, Treatment B (fed with water), single oral 500 mg, Mean, read-out: Cmax): 1250 ng/mL | half-life (both sexes, human, plasma, po, 500 mg, Treatment B (fed with water), single oral 500 mg, Median): 18.9 h | AUC0-inf (both sexes, human, plasma, po, 500 mg, Treatment B (fed with water), single oral 500 mg, Median, read-out: AUC0-inf): 6810 ng·h/mL | AUC0-t (both sexes, human, plasma, po, 500 mg, Treatment B (fed with water), single oral 500 mg, Median, read-out: AUC0-t): 6110 ng·h/mL | Cmax (both sexes, human, plasma, po, 500 mg, Treatment B (fed with water), single oral 500 mg, Median, read-out: Cmax): 1150 ng/mL | tmax (both sexes, human, plasma, po, 500 mg, Treatment B (fed with water), single oral 500 mg, Median, read-out: tmax): 2.75 h | AUC0-inf (both sexes, human, plasma, po, 500 mg, Treatment C (fasting with acidic beverage), single oral 500 mg, Geometric Mean, read-out: AUC0-inf): 3720 ng·h/mL | AUC0-t (both sexes, human, plasma, po, 500 mg, Treatment C (fasting with acidic beverage), single oral 500 mg, Geometric Mean, read-out: AUC0-t): 3340 ng·h/mL | Cmax (both sexes, human, plasma, po, 500 mg, Treatment C (fasting with acidic beverage), single oral 500 mg, Geometric Mean, read-out: Cmax): 558 ng/mL | half-life (both sexes, human, plasma, po, 500 mg, Treatment C (fasting with acidic beverage), single oral 500 mg, Mean): 19.5 h | AUC0-inf (both sexes, human, plasma, po, 500 mg, Treatment C (fasting with acidic beverage), single oral 500 mg, Mean, read-out: AUC0-inf): 4240 ng·h/mL | AUC0-t (both sexes, human, plasma, po, 500 mg, Treatment C (fasting with acidic beverage), single oral 500 mg, Mean, read-out: AUC0-t): 3830 ng·h/mL | Cmax (both sexes, human, plasma, po, 500 mg, Treatment C (fasting with acidic beverage), single oral 500 mg, Mean, read-out: Cmax): 728 ng/mL | half-life (both sexes, human, plasma, po, 500 mg, Treatment C (fasting with acidic beverage), single oral 500 mg, Median): 18.4 h | AUC0-inf (both sexes, human, plasma, po, 500 mg, Treatment C (fasting with acidic beverage), single oral 500 mg, Median, read-out: AUC0-inf): 4260 ng·h/mL | AUC0-t (both sexes, human, plasma, po, 500 mg, Treatment C (fasting with acidic beverage), single oral 500 mg, Median, read-out: AUC0-t): 3800 ng·h/mL | Cmax (both sexes, human, plasma, po, 500 mg, Treatment C (fasting with acidic beverage), single oral 500 mg, Median, read-out: Cmax): 666 ng/mL | tmax (both sexes, human, plasma, po, 500 mg, Treatment C (fasting with acidic beverage), single oral 500 mg, Median, read-out: tmax): 2 h | AUC0-t Ratio C/A (Geometric Mean): 126% | AUC0-t Ratio C/A (Maximum): 588% | AUC0-t Ratio C/A (Mean): 160% | AUC0-t Ratio C/A (Median): 131% | AUC0-t Ratio C/A (Minimum): 23.3% | increase in systemic exposure (fed state (Treatment B) compared to fasting state with acidic beverage (Treatment C)): 108% | increase in systemic exposure (fed state (Treatment B) compared to fasting state with water (Treatment A)): 153% | AUC0-t Ratio B/C (Geometric Mean): 184% | AUC0-t Ratio B/C (Maximum): 615% | AUC0-t Ratio B/C (Mean): 208% | AUC0-t Ratio B/C (Median): 156% | AUC0-t Ratio B/C (Minimum): 83.2% | AUC0-t Ratio B/A (Geometric Mean): 233% | AUC0-t Ratio B/A (Maximum): 490% | AUC0-t Ratio B/A (Mean): 253% | AUC0-t Ratio B/A (Median): 211% | AUC0-t Ratio B/A (Minimum): 132%
Compound: CC(C)c1cccc(C(C)C)c1NC(=O)NCC1(c2ccc(N(C)C)cc2)CCCC1 [ATR-101, N-(2,6-bis(1-methylethyl)phenyl)-N′-((1-(4-(dimethylamino)-phenyl)cyclopentyl)methyl)urea hydrochloride]
AUC0-inf [2]: 728 and 3990 and 5760 and 2610 and 5420 and 4530 and 6970 and 2880 and 3670 and 2670 and 6680 and 5020 | AUC0-t [2]: 572 and 5100 and 2510 and 4940 and 4110 and 6430 and 2360 and 3660 and 3400 and 2250 and 6310 and 4300 | AUC% extrap [2]: 21.5% and 4.67% and 11.3% and 3.84% and 8.70% and 9.20% and 7.61% and 18.3% and 7.31% and 15.6% and 5.52% and 14.2% | Cmax [2]: 19.8 ng/mL and 734 ng/mL and 1030 ng/mL and 438 ng/mL and 948 ng/mL and 645 ng/mL and 952 ng/mL and 461 ng/mL and 602 ng/mL and 525 ng/mL and 1550 ng/mL and 893 ng/mL | t1/2 [2]: 17.5 h and 13.8 h and 8.2 h and 14.0 h and 18.7 h and 20.1 h and 7.9 h and 16.0 h and 26.9 h and 14.2 h and 27.1 h | tmax [2]: 6.00 h and 3.00 h and 1.50 h and 2.50 h | kel [2]: 0.0397 and 0.0501 and 0.0380 and 0.0496 and 0.0371 and 0.0345 and 0.0353 and 0.0249 and 0.0433 and 0.0258 and 0.0488 and 0.0256 | AUC0-t Ratio C/A [3]: 23.3% and 120% and 134% and 101% and 588% and 187% and 132% and 155% and 89.3% and 130% and 143% and 111% | AUC0-t Ratio B/C [3]: 615% and 156% (2×) and 258% and 210% and 83.2% and 168% and 131% and 267% and 148% and 211% and 147% and 153% | AUC0-t Ratio B/A [3]: 144% and 187% and 346% and 212% and 490% and 313% and 173% and 292% and 415% and 132% and 203% and 211% and 169%

— patent US20220117919A1, “ENHANCED BIOAVAILABILITY OF N-(2,6-BIS(1-METHYLETHYL)PHENYL)-N'-((1-(4-(DIMETHYLAMINO)-PHENYL)CYCLOPENTYL)METHYL)UREA HYDROCHLORIDE” (The Regents of the University of Michigan, priority 2015, published 2022)
